Tests used:
[1] = target: PI3-kinase p110-delta/p85-alpha (Homo sapiens, UniProt O00329); assay: Inhibition of N-terminal His6-tagged recombinant full-length human p110delta/untagged recombinant full length p85alpha expressed in baculovirus infected Sf21 cells using phosphatidylinositol as substrate in presence of gamma-32P-ATP after 5 mins by thin layer chromatographic method
[2] = target: PI3-kinase p110-alpha/p85-alpha (Homo sapiens, UniProt P42336); assay: Inhibition of N-terminal His6-tagged recombinant full-length human p110alpha/untagged recombinant full length human p85alpha expressed in baculovirus infected Sf21 cells using phosphatidylinositol as substrate in presence of gamma-32P-ATP after 5 mins by thin layer chromatographic method
Sequence of PI3-kinase p110-alpha/p85-alpha (P27986 whole entry): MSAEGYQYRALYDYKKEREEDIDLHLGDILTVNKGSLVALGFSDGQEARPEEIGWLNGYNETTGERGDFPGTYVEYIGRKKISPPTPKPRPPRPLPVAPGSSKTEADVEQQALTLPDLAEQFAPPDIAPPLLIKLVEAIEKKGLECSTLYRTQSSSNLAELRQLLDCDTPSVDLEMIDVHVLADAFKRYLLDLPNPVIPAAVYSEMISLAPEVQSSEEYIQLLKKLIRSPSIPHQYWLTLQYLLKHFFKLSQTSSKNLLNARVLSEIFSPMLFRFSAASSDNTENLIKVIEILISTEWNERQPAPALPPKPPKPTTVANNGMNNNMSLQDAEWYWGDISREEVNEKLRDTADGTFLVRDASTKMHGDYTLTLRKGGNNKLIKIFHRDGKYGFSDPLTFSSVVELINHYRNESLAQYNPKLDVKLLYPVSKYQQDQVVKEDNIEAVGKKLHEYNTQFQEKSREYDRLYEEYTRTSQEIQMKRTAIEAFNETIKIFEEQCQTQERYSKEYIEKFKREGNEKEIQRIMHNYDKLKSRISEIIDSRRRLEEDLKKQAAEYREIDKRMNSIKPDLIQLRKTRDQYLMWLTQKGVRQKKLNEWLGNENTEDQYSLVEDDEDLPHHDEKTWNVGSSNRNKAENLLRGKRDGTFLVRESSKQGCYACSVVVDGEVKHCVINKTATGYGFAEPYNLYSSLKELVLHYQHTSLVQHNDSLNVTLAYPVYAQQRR
Sequence of PI3-kinase p110-alpha/p85-alpha (P42336 whole entry): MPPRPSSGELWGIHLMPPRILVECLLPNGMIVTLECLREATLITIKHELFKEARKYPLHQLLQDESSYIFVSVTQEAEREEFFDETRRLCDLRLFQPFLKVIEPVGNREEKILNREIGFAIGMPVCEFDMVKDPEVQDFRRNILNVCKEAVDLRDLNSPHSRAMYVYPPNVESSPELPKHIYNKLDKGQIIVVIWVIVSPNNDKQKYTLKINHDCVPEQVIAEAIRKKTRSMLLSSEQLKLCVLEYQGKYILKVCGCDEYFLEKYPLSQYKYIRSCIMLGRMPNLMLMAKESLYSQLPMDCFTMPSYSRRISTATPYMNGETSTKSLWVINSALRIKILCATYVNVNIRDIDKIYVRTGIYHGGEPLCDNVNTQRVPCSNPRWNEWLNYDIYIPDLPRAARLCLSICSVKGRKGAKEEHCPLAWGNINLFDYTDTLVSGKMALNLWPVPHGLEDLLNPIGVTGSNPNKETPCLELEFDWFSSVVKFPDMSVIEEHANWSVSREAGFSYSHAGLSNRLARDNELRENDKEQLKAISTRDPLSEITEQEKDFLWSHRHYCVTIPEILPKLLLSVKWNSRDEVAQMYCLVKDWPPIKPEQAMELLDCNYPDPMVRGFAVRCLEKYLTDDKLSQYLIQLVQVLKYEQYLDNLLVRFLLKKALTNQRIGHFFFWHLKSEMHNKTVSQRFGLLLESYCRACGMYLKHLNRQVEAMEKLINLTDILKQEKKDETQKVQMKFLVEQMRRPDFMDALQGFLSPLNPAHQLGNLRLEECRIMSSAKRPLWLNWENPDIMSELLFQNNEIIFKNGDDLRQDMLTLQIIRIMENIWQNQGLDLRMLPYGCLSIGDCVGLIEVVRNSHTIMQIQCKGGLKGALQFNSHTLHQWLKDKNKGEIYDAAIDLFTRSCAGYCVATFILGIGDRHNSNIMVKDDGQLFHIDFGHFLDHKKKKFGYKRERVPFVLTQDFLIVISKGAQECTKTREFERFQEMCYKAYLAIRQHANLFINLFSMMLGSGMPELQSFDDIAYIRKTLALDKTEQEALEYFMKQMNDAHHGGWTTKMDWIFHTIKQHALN

PI3K p110 beta/p85 alpha = PI3K p110 beta/p85 alpha (Homo sapiens, UniProt P42338); assay: Inhibition of N-terminal His6-tagged recombinant full-length human p110beta/untagged recombinant full length p85alpha expressed in baculovirus infected Sf21 cells using phosphatidylinositol as substrate in presence of gamma-32P-ATP after 5 mins by thin layer chromatographic method
Sequence of PI3K p110 beta/p85 alpha (P27986 whole entry): as the sequence (P27986 whole entry) above
Sequence of PI3K p110 beta/p85 alpha (P42338 whole entry): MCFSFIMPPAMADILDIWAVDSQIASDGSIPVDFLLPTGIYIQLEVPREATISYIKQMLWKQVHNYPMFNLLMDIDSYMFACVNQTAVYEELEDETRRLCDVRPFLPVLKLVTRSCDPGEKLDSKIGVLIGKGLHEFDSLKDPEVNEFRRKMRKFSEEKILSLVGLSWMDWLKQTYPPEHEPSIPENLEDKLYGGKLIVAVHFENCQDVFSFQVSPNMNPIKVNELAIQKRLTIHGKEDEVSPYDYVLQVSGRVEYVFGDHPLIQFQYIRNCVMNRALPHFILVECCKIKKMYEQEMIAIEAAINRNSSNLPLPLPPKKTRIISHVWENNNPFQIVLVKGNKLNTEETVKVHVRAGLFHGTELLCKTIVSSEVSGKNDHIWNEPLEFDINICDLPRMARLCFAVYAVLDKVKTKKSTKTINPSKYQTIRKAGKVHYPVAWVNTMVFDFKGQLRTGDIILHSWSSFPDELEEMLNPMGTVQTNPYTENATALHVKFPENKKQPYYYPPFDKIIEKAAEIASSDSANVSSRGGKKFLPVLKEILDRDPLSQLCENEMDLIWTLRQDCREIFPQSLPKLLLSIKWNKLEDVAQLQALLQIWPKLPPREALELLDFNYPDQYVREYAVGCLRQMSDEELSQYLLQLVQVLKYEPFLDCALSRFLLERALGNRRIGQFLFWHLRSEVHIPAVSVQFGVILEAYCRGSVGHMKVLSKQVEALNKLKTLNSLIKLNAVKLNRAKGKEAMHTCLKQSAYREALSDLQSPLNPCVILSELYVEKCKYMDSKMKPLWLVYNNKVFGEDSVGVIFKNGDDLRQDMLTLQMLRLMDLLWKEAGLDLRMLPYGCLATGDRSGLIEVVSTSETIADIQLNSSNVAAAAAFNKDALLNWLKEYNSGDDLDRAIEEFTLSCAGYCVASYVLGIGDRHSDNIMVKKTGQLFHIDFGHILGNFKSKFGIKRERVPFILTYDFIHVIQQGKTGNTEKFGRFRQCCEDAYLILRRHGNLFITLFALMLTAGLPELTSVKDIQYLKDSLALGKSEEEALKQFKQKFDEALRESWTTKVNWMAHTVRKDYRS

[3] = Antiproliferative activity against Balb/c mouse splenic B cells preincubated for 30 mins followed by LPS or F(ab')2 donkey anti-mouse IgM and recombinant mouse IL4 stimulation measured after 72 hrs by Alamar Blue reduction assay; assay type: functional, cell-based

Sequence of PI3-kinase p110-delta/p85-alpha (P27986 whole entry): as the sequence (P27986 whole entry) above
Sequence of PI3-kinase p110-delta/p85-alpha (O00329 whole entry): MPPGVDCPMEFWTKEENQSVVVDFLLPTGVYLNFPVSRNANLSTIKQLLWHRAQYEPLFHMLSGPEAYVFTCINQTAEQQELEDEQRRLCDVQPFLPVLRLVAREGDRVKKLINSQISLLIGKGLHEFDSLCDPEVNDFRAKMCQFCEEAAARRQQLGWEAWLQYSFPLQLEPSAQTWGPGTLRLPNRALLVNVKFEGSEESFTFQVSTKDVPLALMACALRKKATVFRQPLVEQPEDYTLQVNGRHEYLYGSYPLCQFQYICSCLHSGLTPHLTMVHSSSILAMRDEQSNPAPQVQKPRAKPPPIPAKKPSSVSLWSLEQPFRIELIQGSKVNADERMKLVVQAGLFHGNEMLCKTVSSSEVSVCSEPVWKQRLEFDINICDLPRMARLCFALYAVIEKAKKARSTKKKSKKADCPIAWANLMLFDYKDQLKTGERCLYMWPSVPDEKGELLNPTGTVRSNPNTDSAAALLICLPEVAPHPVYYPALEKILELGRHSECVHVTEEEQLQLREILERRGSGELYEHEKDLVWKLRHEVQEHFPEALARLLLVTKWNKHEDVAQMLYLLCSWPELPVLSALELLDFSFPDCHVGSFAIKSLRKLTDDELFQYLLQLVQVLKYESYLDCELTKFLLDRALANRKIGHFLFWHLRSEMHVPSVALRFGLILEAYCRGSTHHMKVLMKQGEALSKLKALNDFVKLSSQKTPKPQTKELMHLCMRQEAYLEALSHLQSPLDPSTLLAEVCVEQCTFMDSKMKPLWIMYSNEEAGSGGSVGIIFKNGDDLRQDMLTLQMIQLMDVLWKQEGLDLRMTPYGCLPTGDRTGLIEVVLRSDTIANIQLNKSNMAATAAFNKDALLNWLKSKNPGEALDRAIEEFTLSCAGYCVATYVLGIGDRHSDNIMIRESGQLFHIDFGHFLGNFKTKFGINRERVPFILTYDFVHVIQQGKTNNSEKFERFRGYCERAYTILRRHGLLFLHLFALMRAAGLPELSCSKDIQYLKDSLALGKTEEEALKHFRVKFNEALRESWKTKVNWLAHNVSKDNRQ

Row | Structure (SMILES) | IC50 [1] [nM] | IC50 [2] [nM] | IC50 (PI3K p110 beta/p85 alpha) [nM] | EC50 [3] [nM]
1 | COc1ccc(-c2nn(Cc3cc4cccc(C)c4c(=O)n3-c3ccccc3C)c3ncnc(N)c23)cc1OC | < 1000 | > 10000 | > 10000 | < 100
2 | Cc1ccccc1-n1c(Cn2nc(-c3cn[nH]c3)c3c(N)ncnc32)cc2cccc(C)c2c1=O | < 100 | > 10000 | < 10000 | < 100
3 | COc1cc(-c2nn(Cc3cc4cccc(C)c4c(=O)n3-c3ccccc3C)c3ncnc(N)c23)ccc1Cl | < 1000 | > 10000 | > 10000 | < 1000
4 | Cc1cccnc1-n1c(Cn2nc(-c3ccc(F)c(O)c3)c3c(N)ncnc32)cc2cccc(C)c2c1=O | < 100 | > 10000 | > 10000 | < 100
5 | Cc1cccc2cc(Cn3nc(I)c4c(N)ncnc43)n(-c3ccccc3O)c(=O)c12 | < 100 | > 10000 | > 10000 | < 1000
6 | CC(=O)Nc1nc2ccc(-c3nn(Cc4cc5cccc(Cl)c5c(=O)n4C(C)C)c4ncnc(N)c34)cc2s1 | < 100 | < 100000 | < 100 | < 100
7 | Cc1cccc2cc(Cn3nc(-c4ccc(F)c(O)c4)c4c(N)ncnc43)n(C(C)C)c(=O)c12 | < 100 | > 10000 | < 10000 | < 100
8 | Cc1cccc2cc(Cn3nc(-c4ccc(O)c(Cl)c4)c4c(N)ncnc43)n(-c3ccccc3F)c(=O)c12 | < 1000 | > 10000 | > 10000 | < 10000
9 | Cc1cccc2cc(Cn3nc(-c4cc(O)cc(F)c4)c4c(N)ncnc43)n(C3CCCC3)c(=O)c12 | < 100 | < 10000 | < 10000 | < 100
10 | CC(=O)Nc1nc2ccc(-c3nn(Cc4cc5cccc(C)c5c(=O)n4C4CC4)c4ncnc(N)c34)cc2s1 | < 100 | < 100000 | < 100 | < 100
11 | Cc1ccccc1-n1c(Cn2nc(-c3ccc4nc(N)sc4c3)c3c(N)ncnc32)cc2cccc(C)c2c1=O | < 100 | < 1000 | < 10000 | < 1000
12 | COc1ccccc1-n1c(Cn2nc(-c3cccc(O)c3)c3c(N)ncnc32)cc2cccc(C)c2c1=O | < 100 | > 10000 | < 10000 | < 100
13 | Cc1cccc2cc(Cn3nc(-c4cccc(O)c4)c4c(N)ncnc43)n(-c3ccccc3)c(=O)c12 | < 100 | > 10000 | > 10000 | < 100
14 | Cc1cccc2cc(Cn3nc(-c4cccc(O)c4)c4c(N)ncnc43)n(C3CCCCC3)c(=O)c12 | < 100 | > 10000 | < 10000 | < 1000
15 | Cc1cccc2cc(Cn3nc(-c4cc(O)cc(F)c4)c4c(N)ncnc43)n(-c3ccccc3F)c(=O)c12 | < 100 | < 10000 | < 10000 | < 100
16 | Cc1cccc2cc(Cn3nc(-c4cc(O)cc(F)c4)c4c(N)ncnc43)n(-c3ccccc3C(C)C)c(=O)c12 | < 100 | < 1000 | < 1000 | < 100
17 | Cc1ccccc1-n1c(Cn2nc(-c3cccc(O)c3)c3c(N)ncnc32)cc2cccc(C)c2c1=O | < 100 | > 10000 | < 10000 | < 100
18 | Cc1cccc2cc(Cn3nc(-c4cccc(O)c4)c4c(N)ncnc43)n(-c3ccccc3Cl)c(=O)c12 | < 100 | > 10000 | < 10000 | < 100
19 | Cc1cccc2cc(Cn3nc(-c4ccc(O)c(F)c4)c4c(N)ncnc43)n(-c3ccccc3F)c(=O)c12 | < 1000 | > 10000 | > 10000 | < 1000
20 | Cc1cccc2cc(Cn3nc(-c4cc(O)cc(F)c4)c4c(N)ncnc43)n(C3CCCCC3)c(=O)c12 | < 100 | > 10000 | < 10000 | < 1000
21 | CCc1ccccc1-n1c(Cn2nc(-c3cc(O)cc(F)c3)c3c(N)ncnc32)cc2cccc(C)c2c1=O | < 100 | < 10000 | < 1000 | < 100

— ChEMBL document CHEMBL3879901, “Substituted isoquinolin-1(2H)-ones, and methods of use thereof” (2012)
